The values that follow come from US20040143025A1, “Carbon monoxide generating compunds for treatment of vascular, inflammatory and immune disorders” (priority 2002, published 2004).

A short description of series [1]: Systemic COHb and blood chemistry after oral methylene chloride in rats. It counts as in vivo, rat. As to conditions: MC-treated rats, 500 mg/kg daily. The method, then: MC (Sigma, St. Louis, Mo.) was diluted in olive oil and administered orally on a daily basis (from day 0 to 30) at 500 mg/kg. This dose saturates the cytochrome P-450 oxidative system, and yields maximal COHb values of 10% COHb in venous or aortic blood. Gargas et al. and Andersen et al., supra; Wirkner et al., Toxicol. App. PharmacoL 143:83-88 (1997). […] Id. […] Kirschman, Fd. Chem. Toxic. 24:943-49 (1986); Dhillon and Von Burg, Toxicology Update 1:329-35 (1995). MC may show liver and central nervous system toxicity at higher doses and/or longer exposures. Id. COHb levels were evaluated in heparinized venous blood using the VOXimeter sensor (A-VOX Systems, San Antonio, Tex.) and expressed as the percentage of total hemoglobin. Bicarbonates, soluble CO2, total CO2 and pH were measured using standard clinical biochemistry techniques (Laboratory of Biochemistry, University Hospital of Nantes).

The test system of series [2] is C57BL/6 ApoE (−/−) mice. The series can be described thus: Carotid wire injury in atherogenic ApoE-/- mouse, neointimal formation. It counts as in vivo. As to conditions: day -1 to day 28. The method, then: The effects of CO generated though metabolic degradation of methylene chloride are investigated in an atherosclerotic mouse carotid intimal denudation model. Female C57BL/6 ApoE (−/−) mice (10-12 weeks old, n=12/group) are fed Western diet for 1 week prior to injury and 4 weeks after injury. On day 0 mice are anesthesized with ip injection of ketamine (80 mg/kg) & xylazine (5 mg/kg). The left carotid artery is isolated and two ligatures (6-O silk) are placed around the external carotid artery, ligatures are also placed around the common and internal carotid arteries. After the distal external carotid ligatures are tied, the carotid is incised with Vannas scissors proximal to the ligature. A curved flexible wire (0.35 mm/0.014 in diameter) is introduced into the external carotid and passed three times along the wall of the common carotid while being rotated. Upon removal of the wire the proximal carotid ligature is tied and the skin is reopposed with 6-O silk.
Methylene chloride (25, 100, 400 mg/kg/day) is administered intraperitoneally or orally starting on day-1 until day 28. A control group is treated with vehicle. On day 28 animals are sacrificed and after incision, the right and left common, external, and internal carotids are ligated. After sternotomy, common carotids are dissected further to the aortic arch. A 27-gauge needle is placed in the left ventricle and a systemic perfusion with phosphate buffered paraformaldehyde (100 mM, 4% wt/vol, pH 7.3) is performed at 100 mmHg via the left ventricular cannula. Subsequently, the common, internal and external carotid arteries are transected and removed. Specimens are dehydrated in ethanol and xylene, and embedded in paraffin. Tissue sections are stained and VSMC proliferation is assessed microscopically by histomorphometry. Methylene chloride therapy at 400, 100, and 25 mg/kg/day inhibits neointimal formation by 90%, 75% and 30% respectively.

Series [3] concerns HO-1. The series is described as follows: HO-1 enzymatic activity in liver homogenates. It counts as biochemical, rat. As to conditions: liver after perfusion; ZnPP = 1.5 mg/kg i.p. 24 h before harvest then CO perfusion; CO = CO only. The method, then: HO-1 Enzymatic Activity. Livers were homogenized on ice in a Tris-HCl lysis buffer (pH 7.4) containing 0.5% Triton X-100 and protease inhibitors. Samples were frozen in small aliquots until use. Homogenates (100 μl) were mixed with 0.8 mM NADPH, 0.8 mM glucose-6-phosphate 1.0 unit G-60P dehydrogenase, 1 mM MgCl2 and […] purified rat liver biliverdin reductase at 4° C. The reaction was initiated by the addition of hemin (final concentration 0.25 mM). The reaction mixture was incubated at 37° C. in the dark for 15 min. At the end of incubation period, any insoluble material was removed by centrifugation and supernatants were analyzed for bilirubin concentration. An extinction coefficient of 40 mM^−1 cm^−1 at A 460-530 was used to calculate the amount of bilirubin formed. Controls included naive samples in the absence of the NADPH generating system and all the ingredients of the reaction mixture in the absence of graft homogenates. Biliverdin reductase was purified from rat liver, as described in Browne and Ultrich, Mol. Pharmacol. 32:497-504 (1987).

The subject of series [4] is aortic allografts. The series is described as follows: Immunohistology of aortic grafts: activation markers and cytokines. It is filed as in vivo, rat. Details: key: −: not present; +: low; ++: moderate; +++: frequent. The method, then:
Immunohistological analysis. Immunohistology was performed on cryostat sections as previously described in detail. Guillot et al., J. Immunol. 164:5258-68 (2000). Immunohistological analysis of infiltrating leukocytes was performed at day 30 after transplantation using the following mouse Mab: a mixture of two anti-leukocyte CD45 Mabs (OX1 AND OX30), anti-monocyte/macrophage CD68 (ED1), anti-αβ TCR (R.7.3), anti-CD4 (W3/25), anti-CD8 α chain (OX8), anti-monomorphic class II MHC antigens (OX6), anti-CD25 (OX39) (all from ECACC, Wiltshire, UK), anti-CD54 (ICAM-1) (Seikagaku America Inc., Rockville, Mass.), anti-CD86 (B7.2) (Pharmingen, Franklin Lakes, N.J.) and an irrelevant mouse Mab (3G8, anti-human CD16). VSMCs were detected using a mouse anti-α human smooth muscle actin Mab (Sigma, St. Louis, Mo.). Slides were then incubated with a biotin-conjugated anti-mouse immunoglobulin antibody (Vector Laboratories, Burlingame, Calif.), followed by HRP-conjugated streptavidin (Vector Laboratories) and VIP substrate. IFNγ expression was analyzed using a hamster Mab (Genzyme, Cambridge, Mass.). The IP10 chemiokine was detected using a goat anti-IP10 antibody (Santa Cruz, Santa Cruz, Calif.). Rabbit antibodies were used to detect iNOS (Transduction Laboratories, Lexington, Ky.), HO-1 (Stressgen) and TGFβ1 (Promega, Madison, Wis.). Biotin-conjugated anti-hamster, anti-goat and anti-rabbit antibodies were from Jackson Immunoresearch. Binding of these antibodies was detected by incubation with HRP-conjugated streptavidin and VIP substrate. Tissue sections were counterstained with hematoxylin and lithium carbonate.

As to `ClCCl` [methylene chloride], in series [1], the “behavior, food consumption, gross necropsy” value was “normal behavior, food consumption and no particular gross necropsy alterations”. Also, the “inhibition of neointimal formation” value is reported as 30% in series [2] (25 mg/kg/day), 75% in series [2] (100 mg/kg/day) and 90% in series [2] (400 mg/kg/day).
For the compound `[C-]#[O+]` [CO, carbon monoxide], the HO-1 enzyme activity in series [3] is recorded as 2.25±0.18 nmol of bilirubin/mg/protein/min. Besides, in series [4] (adventitia), the “CD54 (ICAM-1)” value is recorded as “+++”, the “CD86 (B7.2)” value is “+”, the INOS result is listed as “+++” and the IP10 entry is given as “+”. For the same compound, in series [4] (adventitia), the MHC-II entry is “++” and the TGFβ result is “++”. In series [4] (intima), the “CD54 (ICAM-1)” value is recorded as “++”, the “CD86 (B7.2)” value is “+”, the INOS result is recorded as “++” and the IP10 entry was “+”. Moreover, in series [4] (intima), the MHC-II entry was “++” and the TGFβ entry is “+”. In series [4] (media), the “CD54 (ICAM-1)” value is “−”, the “CD86 (B7.2)” value was “−”, the INOS entry was “++” and the IP10 entry is listed as “+”. Also, in series [4] (media), the MHC-II entry is “−” and the TGFβ result was “+”.
